Reference: patent publication US10308617B2, “Triazole benzamide derivatives and the compositions and methods of treatment regarding the same” (An2H Discovery Limited, priority 2016, dated 2019)

Target: T1, Parkin ligase (Homo sapiens, UniProt O60260)
T1 sequence (O60260 1-465): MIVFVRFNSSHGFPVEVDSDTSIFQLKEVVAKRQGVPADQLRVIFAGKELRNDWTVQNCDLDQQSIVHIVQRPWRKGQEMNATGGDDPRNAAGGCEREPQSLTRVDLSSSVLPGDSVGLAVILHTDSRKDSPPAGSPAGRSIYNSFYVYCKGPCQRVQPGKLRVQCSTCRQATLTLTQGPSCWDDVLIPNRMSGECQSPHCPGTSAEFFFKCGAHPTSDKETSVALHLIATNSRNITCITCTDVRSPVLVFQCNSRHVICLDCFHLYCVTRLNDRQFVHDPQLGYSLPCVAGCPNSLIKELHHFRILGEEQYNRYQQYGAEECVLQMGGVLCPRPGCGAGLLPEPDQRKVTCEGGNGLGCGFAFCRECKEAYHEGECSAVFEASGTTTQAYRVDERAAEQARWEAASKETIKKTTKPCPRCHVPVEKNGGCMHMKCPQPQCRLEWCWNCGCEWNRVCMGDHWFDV
Assay: Activity-Based Probe Assay using an Ubiquitin vinyl sulfone probe (TR-FRET)
Assay type: biochemical
Details: for EC50: Parkin activation, HA-Ub-VS probe, heat activated Parkin, read-out: Probe Assay EC50 (μM) [Example 2]
Protocol: An Ubiquitin vinyl sulfone probe can be used that irreversibly binds to the active site cysteine of Parkin ligase. Covalent attachment of the probe to the Parkin can be monitored by TR-FRET. Candidate activator compounds can be identified by increasing the activity of Parkin ligase due to an increase in TR-FRET signal. Screening for activating compounds can be distinguished from the controls as follows: • 100% activation signal=Heat activated Parkin+100 nM control activator in DMSO. • 0% activation signal=Heat activated Parkin+DMSO only. • Parkin activators can be identified by an increase of the 0% activation signal TR-FRET signal.
• Assay Plate: White 384 well plate (Corning 3572) • Enzyme: Parkin-His tagged 203 μM (10.5 mg/ml) • Probe: Ubiquitin vinyl-sulfone (HA-Ub-VS Boston Biochem U-212) • DMSO: DMSO (Sigma cat # D4540-100ML) • Reaction Buffer: 50 mM HEPES (pH 8.5), 150 mM NaCl, 0.01% Tween 20, 0.1% BSA • Detection Buffer: 50 mM HEPES (pH 8.5), 150 mM NaCl, 0.01% Tween 20, 0.1% BSA, 800 mM KF • Detection Reagent A: 2.6 nM Anti-6HIS-Eu cryptate and 40 nM Anti-HA-XL665 in detection buffer • Eu cryptate: Anti-6HIS-Eu cryptate (CisBio 61HISKLA) • XL665: Anti-HA-XL665 (CisBio 610HAXLA) Enzyme Reaction (15 min pre incubation Parkin with activator only) • Parkin: 40 nM • HA-Ub-VS Probe: 70 nM • Activator/DMSO: 2× Activator/2% DMSO • Reaction time: 60 minutes • Temperature: 22° C. • Total volume: 10 μl reaction Detection Reaction • Take 10 μl of Enzyme Reaction above and add 10 μl detection Reagent A under the following conditions: • Reaction time: 60 minutes • Temperature: 22° C. • Total volume: 20 μl
Assay procedure (Using HP D-300 compound dispenser and Bravo for the operation): • 1) Heat activate Parkin in reaction buffer (500 μl/1.5 ml tube: Eppendorf Thermomixer 5 minutes, 400 rpm at 58° C. and put on ice until needed). • 2) Load assay plate wells with 4.8 μl 84.5 nM Parkin in reaction buffer by use of Bravo. • 3) Deliver 0.2 μl 200× activator candidates in DMSO by use of HP D-300 compound dispenser. Highest 200× concentration=[…] and then twofold dilutions. • 4) Spin 1000 rpm, 2 minutes, at room temp. • 5) Incubate plate for 15 minutes at room temp. • 6) Add 5 μl 140 nM HA-Ub-VS Probe in reaction buffer by use of Bravo. • 7) Spin 1000 rpm, 2 minutes, at room temp. • 8) Incubate plate for 60 minutes at room temp. • 9) Add 10 μl 2.6 nM Anti-6HIS-Eu cryptate and 40 nM Anti-HA-XL665 in detection buffer. • 10) Spin 1000 rpm, 2 minutes, at room temp. • 11) Incubate plate for 60 minutes at room temp. • 12) Read plates on Perkin Elmer Envision instrument with the following parameters: • LANCE dual laser protocol loaded into the Envision® software • Top Mirror: LANCE/DELFIA Duel/Bias (Bar code 446) • Emission Filter: APC 665 EM (Bar code 205) • 2nd Emission Filter: Europium 615 EM (Bar code 203) • Read 655 nm (channel 1) and 615 nm (channel 2) wavelengths on Envision®
Data Analysis: The Data can be read in CSV files. There are two tables in those CSV files, which are the values of 655 nm (channel 1) and 615 nm (channel 2) wavelengths respectively. The data is converted to an HTRF Ratio=(Channel 1/Channel 2)*10,000
The average of all the 0 uM controls (DMSO only)=BKGD (Background—0% activation). Subtract BKGD from each HTRF Ratio value=HTRF-BKGD. The average of all the […] 100 nM control activator in DMSO controls=Max (100% activation). The following equation is then used to calculate % Activation for each well/candidate as follows: % Activation=(HTRF-BKGD/Max)*100.
Graphpad Prisim was used with Transform X values: X=Log(X) and nonlinear regression (dose-response-stimulation): Log(agonist) vs Response—variable slope (four parameters) with constrains set to Bottom=0 and Top=100.
The Activity-Based Probe Assay was performed with various compounds in Tables 1-3.

Row | Structure (SMILES) | EC50 [µM] | Parkin Ligase reaction with the Activity-based Ubiquitin vinyl sulfone probe
1 | O=C(Nc1nc(Nc2cc(N3CCCC3)nc3ccccc23)n(-c2ccccc2)n1)c1ccccc1 [Compound A1] | > 100 | –
2 | O=C(Nc1nc(NC(=O)c2cc3ccccc3s2)n(-c2ccccc2)n1)c1ccccc1 [Compound A2] | 50 | –
3 | O=C(Nc1nc(NC(=O)c2ccccc2)n(-c2ccccc2)n1)c1ccccc1 [Compound A, N,N′-(1-phenyl-1H-1,2,4-triazole-3,5-diyl)dibenzamide] | 7 | increases
4 | O=C(Nc1nc(Nc2nc(N3CCCC3)c3ccccc3n2)n(-c2ccccc2)n1)c1ccccc1 [Compound B1] | > 100 | –
5 | O=C(Nc1nc(NC(=O)c2ccc3ccccc3n2)n(-c2ccccc2)n1)c1ccccc1 [Compound B2] | 4 | –
6 | CC(=O)Nc1nc(NC(C)=O)n(-c2ccccc2)n1 [Compound B] | > 100 | –
7 | O=C(Nc1nc(Nc2ncnc3ccccc23)n(-c2ccccc2)n1)c1cccs1 [Compound C1] | 3.7 | –
8 | Cc1ccccc1C(=O)Nc1nc(NC(=O)/C=C/c2ccccc2)n(-c2ccccc2)n1 [Compound C2] | 4 | –
9 | O=C(/C=C/c1ccccc1)Nc1nc(NC(=O)c2ccccc2)nn1-c1ccccc1 [Compound C, N-(5-cinnamamido-1-phenyl-1H-1,2,4-triazol-3-yl)benzamide] | 15.1 | increases
10 | CN1CCC(C(=O)Nc2nc(Nc3ncnc4ccccc34)n(-c3ccccc3)n2)CC1 [Compound D1] | 38.9 | –
11 | O=C(Nc1nc(NC(=O)c2ccccc2)n(-c2ccc3ccccc3n2)n1)c1ccccc1 [Compound D2] | 89 | –
12 | O=C(Nc1nc(Nc2nc(O)nc3ccccc23)n(-c2ccccc2)n1)c1ccccc1 [Compound E1] | > 100 | –
13 | O=C(Nc1nc(NC(=O)c2ccccc2)n(-c2ccc3c(c2)OCCO3)n1)c1ccccc1 [Compound E2] | 6 | –
14 | O=C(Nc1nc(NC(=O)c2ccccc2)n(-c2ccc(I)cc2)n1)c1ccccc1 [Compound E, N-[5-benzamido-1-(4-iodophenyl)-1,2,4-triazol-3-yl]benzamide] | 15.3 | –
15 | CCN(CC)c1cc(Nc2nc(NC(=O)c3ccccc3)nn2-c2ccccc2)ncn1 [Compound F1] | > 100 | –
16 | COc1ccc(-n2nc(NC(=O)c3ccccc3)nc2NC(=O)c2ccccc2)cc1 [Compound F2] | 12 | –
17 | Cc1ccccc1C(=O)Nc1nc(NC(=O)c2ccccc2C)n(-c2ccccc2)n1 [Compound F, 2-methyl-N-[5-[(2-methylbenzoyl)amino]-1-phenyl-1,2,4-triazol-3-yl]benzamide] | 6.7 | –
18 | O=C(Nc1nc(Nc2cc(N3CCCC3)ncn2)n(-c2ccccc2)n1)c1ccccc1 [Compound G1] | > 100 | –
19 | O=C(Nc1nc(NC(=O)c2cccs2)nn1-c1ccccc1)c1ccccc1 [Compound G2] | 2 | –
20 | O=C(Nc1nc(Nc2ccncn2)n(-c2ccccc2)n1)c1ccccc1 [Compound H1] | > 100 | –
21 | Cc1ccccc1C(=O)Nc1nc(-c2ccccn2)nn1-c1ccc(OC(F)(F)F)cc1 [Compound H3] | 3 | –
22 | Cc1ccccc1C(=O)Nc1nc(NC(=O)c2ccccc2)n(-c2ccccc2)n1 [Compound H] | > 100 | –
23 | O=C(Nc1nc(Nc2ccnc3ccccc23)n(-c2ccccc2)n1)c1ccccc1 [Compound I1] | > 100 | –

Row | Structure (SMILES) | EC50 [µM] | Parkin Ligase reaction with the Activity-based Ubiquitin vinyl sulfone probe
24 | O=C(Nc1nc(NC(=O)c2ccccc2)n(C2CCOCC2)n1)c1ccccc1 [Compound I2] | > 100 | –
25 | Nc1nc(Nc2nc(NC(=O)c3ccccc3)nn2-c2ccccc2)c2ccccc2n1 [Compound J1] | > 100 | –
26 | O=C(Nc1nc(NC(=O)c2ccccc2)n(-c2ccc3ncccc3c2)n1)c1ccccc1 [Compound J2] | 6 | –
27 | CC(C)C(=O)Nc1nc(Nc2ncnc3ccccc23)n(-c2ccccc2)n1 [Compound K1] | 9.2 | –
28 | Cc1ccccc1C(=O)Nc1nc(NC(=O)c2cccs2)nn1-c1ccccc1 [Compound K2] | 6 | –
29 | Cc1ccccc1C(=O)Nc1nc(NC(=O)c2ccccc2)nn1-c1ccccc1 [Compound K, N-(5-benzamido-2-phenyl-1,2,4-triazol-3-yl)-2-methyl-benzamide] | 10.8 | –
30 | C/C=C/C(=O)Nc1nc(Nc2ncnc3ccccc23)n(-c2ccccc2)n1 [Compound L1] | 37 | –
31 | C=CC(=O)Nc1nc(NC(=O)c2ccccc2)nn1-c1ccccc1 [Compound L2] | > 100 | –
32 | O=C(Nc1nc(Nc2ncnc3ccccc23)n(-c2ccccc2)n1)c1ccccc1 [Compound L, N-[1-phenyl-5-(quinazolin-4-ylamino)-1,2,4-triazol-3-yl]benzamide] | 1.8 | –
33 | C=C(C)C(=O)Nc1nc(Nc2ncnc3ccccc23)n(-c2ccccc2)n1 [Compound M1] | 11.9 | –
34 | O=C(Nc1nc(NC(=O)c2nc3ccccc3s2)n(-c2ccccc2)n1)c1ccccc1 [Compound M2] | > 100 | –
35 | Nc1nc(Nc2nc(NC(=O)c3ccccc3)nn2-c2ccccc2)nc2ccccc12 [Compound N1] | > 100 | –
36 | O=C(Nc1nc(Nc2nc(O)c3ccccc3n2)n(-c2ccccc2)n1)c1ccccc1 [Compound O1] | 12.8 | –
37 | O=C(Nc1nc(NC(=O)c2ccccc2)n(-c2cccc3cccnc23)n1)c1ccccc1 [Compound O2] | > 100 | –
38 | O=C(Nc1nc(NC(=O)c2ccccc2)n(-c2cccc3ncccc23)n1)c1ccccc1 [Compound P2] | > 100 | –
39 | Cc1ccccc1C(=O)Nc1nc(-c2ccccn2)nn1-c1ccccc1 [Compound Q2] | 26 | –
40 | Cc1ccccc1C(=O)Nc1nc(NC(=O)c2ccccc2C)n(-c2ccc(Cl)cc2)n1 [Compound Q3] | 4 | –
41 | Cc1ccccc1C(=O)Nc1nc(Nc2ncnc3ccccc23)n(-c2ccccc2)n1 [Compound R2] | 4 | –
42 | Cc1ccc(-c2nc(NC(=O)c3ccccc3C)n(-c3ccccc3)n2)nc1 [Compound R3, 2-methyl-N-(3-(5-methylpyridin-2-yl)-1-phenyl-1H-1,2,4-triazol-5-yl)benzamide] | 3 | –
43 | Cc1ccccc1C(=O)Nc1nc(-c2ccncc2)nn1-c1ccccc1 [Compound S2] | > 100 | –
44 | Cc1ccccc1C(=O)Nc1nc(-c2ncccc2C)nn1-c1ccccc1 [Compound S3, 2-methyl-N-(3-(3-methylpyridin-2-yl)-1-phenyl-1H-1,2,4-triazol-5-yl)benzamide] | 3 | –
45 | Cc1ccccc1C(=O)Nc1nc(-c2cccnc2)nn1-c1ccccc1 [Compound T2] | > 100 | –
46 | O=C(/C=C/c1ccccc1)Nc1nc(NC(=O)c2ccccc2)nn1-c1ccccn1 [Compound U1] | 25.9 | –
